Experimental data: US9737493B2, “Compositions and methods for modulating DNMT1 inhibitor activity” (University of Louisville Research Foundation, Inc., priority 2012, dated 2017)

Columns and labels:
[1] = tested on: MDA-MB-231 cells; assay: Clonogenic cell survival assay; type: cell-based, human; details: MDA-MB-231, NAC and GSH 5 mM, AA 100 μM, 10 days
Protocol: Clonogenic cell survival assays were conducted with MDA-MB-231 cells treated as indicated and grown in culture for 10 days (see Methods). Clonogenic Assays. Cells were plated at low density (300 cells/well) in 6-well tissue culture plates, and allowed to adhere overnight. Where indicated, the medium was then replaced with fresh medium containing antioxidants or vehicle (sterile ultrapure H2O). XB05 or vehicle control (DMSO) was then added directly to the medium at the concentrations indicated. After 10 days, cells were fixed with 4% paraformaldehyde in PBS and stained with Accustain Crystal Violet Solution (Sigma Aldrich) washed and air-dried. Colonies were counted using the cell counter feature in the Image J software, available from the National Institute of Health (<<rsbweb.nih.gov/ij/download.html>>).

[2] = tested on: A549 cells; details: A549, in combination with XB05, 10 days
Protocol: (C) Clonogenic cell survival assays were conducted in A549 cells treated as indicated and grown in culture for 10 days (see Methods). Bar graph indicates mean values (+/−SEM) for colony growth inhibition from 3 independent experiments. […] Clonogenic Assays. Cells were plated at low density (300 cells/well) in 6-well tissue culture plates, and allowed to adhere overnight. Where indicated, the medium was then replaced with fresh medium containing antioxidants or vehicle (sterile ultrapure H2O). XB05 or vehicle control (DMSO) was then added directly to the medium at the concentrations indicated. After 10 days, cells were fixed with 4% paraformaldehyde in PBS and stained with Accustain Crystal Violet Solution (Sigma Aldrich) washed and air-dried. Colonies were counted using the cell counter feature in the Image J software, available from the National Institute of Health (<<rsbweb.nih.gov/ij/download.html>>).

[3] = tested on: U937 myeloid leukemia cells; assay: MTT cell proliferation assay; type: cell-based, human; details: U937, MTT and flow cytometric assays, in combination with XB05, 72 h
Protocol: (§1) Cell Proliferation Assays. The antiproliferative activity of XB05 was tested using a previously published 3-(4,5-dimethylthiazol-2-yl)-2,5-diphenyltetrazolium bromide (MTT) assay protocol (Girvan et al., “AGRO100 inhibits activation of nuclear factor-kappaB (NF-kappaB) by forming a complex with NF-kappaB essential modulator (NEMO) and nucleolin” Molecular Cancer Therapeutics (2006) Vol. 5, No. 7, pp. 1790-1799). Briefly, cells were seeded in quadruplicate wells in 96-well plates and allowed to adhere overnight. […] Plates were incubated with XB05 for 72 h, during which the cell culture medium was not changed. Cell viability was determined and the background corresponding to medium alone (no cells) was subtracted. Data were analyzed as described in the Brief Description of the Drawings.
(§2) XB05 has Cancer-Selective Antiproliferative Activity. XB05 was tested to determine its antiproliferative activity in a variety of human cell lines that are derived from malignant tissues or from non-malignant (immortalized but not transformed) cells and listed in FIG. 1B. As described in Materials and Methods, cells were treated with varying concentrations of XB05 for 72 h and evaluated using the MTT cell proliferation assay.

[4] = tested on: A549 non-small cell lung cancer cells; assay: MTT cell proliferation assay; type: cell-based, human; details: A549, MTT, in combination with XB05, 72 h
Protocol: as §1, §2

[5] = tested on: A549 cells; type: cell-based; details: for effect of antioxidant on XB05-induced cell death: A549, annexin/PI, in combination with XB05, 72 h
Protocol: Some cells were treated with buthionine sulfoximine (BSO, 200 μM) plus diethyl maleate (DEM, 1 mM) for 3 h as a positive control for GSH depletion. Bar graph indicates mean+/−SEM from three independent experiments. […] Membranes were stripped and reprobed for Ku-70 as a loading control.
Flow Cytometric Assays. Analyses were performed using a FACScalibur flow cytometer (BD Biosciences, Mountain View, Calif.) and FlowJo software (Tree Star, Inc., Ashland, Oreg.). Cells were treated as indicated in the figures and in the Brief Description of the Drawings. Cells were harvested by using TrypLE Cell Dissociation Reagent (Life Technologies). For cell death analyses, cells (adherent and detached cells) were stained with annexin-V-FITC and propidium iodide (PI) using the Apoptosis Detection Kit (BD Biosciences, San Jose, Calif.), according to the manufacturer's instructions. For cell-cycle distribution, cells were fixed, and stained with PI using the Cycle Test Plus kit (Becton Dickinson, Franklin Lakes, N.J.). For detection of γ-H2AX, cells were washed with PBS and fixed in 4% paraformaldehyde in PBS for 10 min at 37° C. […] After washing with PBS, cells were re-suspended in PBS containing 1 μg/mL PI to allow exclusion of non-viable cells. For detection of mitochondrial superoxide, cells were harvested, washed with PBS and stained with 5 μM MitoSOX™ Red (Life Technologies) in warm PBS for 10 min at 37° C. Cells were then washed twice with PBS, re-suspended at a density of 1×10^6 cells/mL in PBS and analyzed by flow cytometry.

[6] = tested on: U937 cells; assay: Annexin/PI flow cytometric cell death analysis; type: cell-based, human; details: U937, 50 and 100 μM BSO, 1 μM XB05, 72 h
Protocol: Data shown are representative of three independent experiments. (B) The cell lines indicated were treated with DMSO vehicle or XB05 (1 μM for U937 and Hs27, or 2 μM for A549) for the timepoints indicated. (C) The cell lines indicated were treated with DMSO vehicle, XB05 (1 μM for U937 and Hs27, or 2 μM for A549) or Thapsigargin positive control (2 μM) for 24 h. Densitometry was performed to quantify western blot band intensities for phospho-eIF2α (ser51), total eIF2α and BiP (representative blot shown in FIG. 8D). All values were normalized to DMSO vehicle control. Bar graphs indicate the average band intensity for three independent experiments, +/−the standard error of the mean. Statistical significance for XB05 compared to vehicle is indicated (*p≦0.05 and **p≦0.01).
Flow Cytometric Assays. Analyses were performed using a FACScalibur flow cytometer (BD Biosciences, Mountain View, Calif.) and FlowJo software (Tree Star, Inc., Ashland, Oreg.). Cells were treated as indicated in the figures and in the Brief Description of the Drawings. Cells were harvested by using TrypLE Cell Dissociation Reagent (Life Technologies). […] Cells were then washed twice with PBS, re-suspended at a density of 1×10^6 cells/mL in PBS and analyzed by flow cytometry.

[7] = tested on: Colo-205 xenografts; assay: Colo-205 xenografts in nude mice; type: in vivo; details: 25 mg/kg daily for 21 days, i.v.
[8] = tested on: U937 cells; assay: Clonogenic cell survival assay; type: cell-based, human; details: U937, 100 μM BHA, data not shown

SMILES: CC(=O)N[C@@H](CS)C(=O)O [NAC, N-acetyl cysteine]
- protection from cytotoxic effects of XB05 [1]: protect these cells from the cytotoxic effects of XB05
- effect of antioxidant on XB05 effect on clonogenic survival [2]: abrogated the effect of XB05 on clonogenic survival
- protection from antiproliferative and cytotoxic effects of XB05 [3]: protect these cells from the antiproliferative and cytotoxic effects of XB05
- effect of antioxidant on antiproliferative effects of XB05 [4]: diminish the antiproliferative effects of XB05
- effect of antioxidant on XB05-induced cell death [5]: protected cells from XB05-induced apoptosis and nonapoptotic cell death

SMILES: O=C1O[C@H]([C@@H](O)CO)C(O)=C1O [AA, L-ascorbic acid]
- protection from cytotoxic effects of XB05 [1]: not
- effect of antioxidant on XB05 effect on clonogenic survival [2]: no protective effect
- protection from antiproliferative and cytotoxic effects of XB05 [3]: not
- effect of antioxidant on antiproliferative effects of XB05 [4]: no effect
- effect of antioxidant on XB05-induced cell death [5]: slightly enhanced the pro-apoptotic activity of XB05

SMILES: CCCCS(=N)(=O)CCC(N)C(=O)O (centres unmarked) [BSO, buthionine sulfoximine]
- cytotoxicity of BSO plus XB05 compared to XB05 alone [6]: enhanced cytotoxicity compared to XB05 treatment alone
- cytotoxicity of BSO plus XB05 compared to XB05 alone ([5]; A549, 50 and 100 μM BSO, 2 μM XB05, 72 h): enhanced cytotoxicity compared to XB05 treatment alone

SMILES: CC/C=C\CCC(O)C#CC(F)(F)Br (centres unmarked) [LD-01-072]
- in vivo antitumor efficacy [7]: in vivo antitumor efficacy
- non-specific toxicity judged by body weight [7]: no evidence of any severe non-specific toxicities

SMILES: N[C@@H](CCC(=O)N[C@@H](CS)C(=O)NCC(=O)O)C(=O)O [GSH, reduced glutathione]
- protection from cytotoxic effects of XB05 [1]: protect these cells from the cytotoxic effects of XB05
- effect of antioxidant on XB05 effect on clonogenic survival [2]: abrogated the effect of XB05 on clonogenic survival
- protection from antiproliferative and cytotoxic effects of XB05 [3]: protect these cells from the antiproliferative and cytotoxic effects of XB05
- effect of antioxidant on antiproliferative effects of XB05 [4]: diminish the antiproliferative effects of XB05
- effect of antioxidant on XB05-induced cell death [5]: protected cells from XB05-induced apoptosis and nonapoptotic cell death

SMILES: COc1ccc(O)c(C(C)(C)C)c1 [BHA, butylated hydroxyanisole]
- protection from XB05 activity [8]: no protective effect
